Results from PMC8545107 (mBio, 2021).
No end group written: not given here.

What was measured:
[1] = biological target: gallocin gene promoter (PgllA) in S. gallolyticus subsp. gallolyticus UCN34 Δgsp pTCVΩPgllA-gfp (receptor BlpH); assay: Gallocin induction reporter gene assay (PgllA-gfp); assay type: cell-based, Streptococcus gallolyticus subsp. gallolyticus; conditions: reporter strain UCN34 Δgsp pTCVΩPgllA-gfp; maximum GFP fluorescence normalized with OD600; 37°C; triplicate, three trials, sigmoidal curve fit
Text: We first aimed at determining the active form of GSP in S. gallolyticus subsp. gallolyticus strain UCN34. GSP is derived from a 45-residue precursor encoded by gsp and is predicted to be processed to a 24-mer peptide by cleavage of the amino-terminal leader sequence after a double glycine motif and then exported to the extracellular environment by the BlpAB transporter. However, GSP was previously isolated as a 21-mer peptide from S. gallolyticus subsp. gallolyticus TX20005 ([10]). We first confirmed by mass spectrometry analysis that GSP isolated from culture supernatants of strain UCN34 was strictly identical to the 21-mer peptide previously purified from strain TX20005 (Fig. S1). […] Therefore, we chemically synthesized GSP 21-mer and GSP 24-mer peptides to test their efficiency in activating gallocin gene transcription. To do so, we used a reporter S. gallolyticus subsp. gallolyticus strain, UCN34, in which the endogenous gsp gene has been deleted and which contains a plasmid expressing gfp under the control of the gallocin gene promoter (PgllA) ([33]).
Fluorescence and absorbance measurements were recorded using a Biotek Synergy H1 microplate reader using Gen5 data analysis software (v. 3.03). Biological assays were performed in triplicate per trial. EC50s from three trials were calculated using GraphPad Prism software (v. 7.0) using a sigmoidal curve fit.
Stock solutions of peptides (1 mM) were prepared in dimethyl sulfoxide (DMSO) and stored at 4°C in sealed glass vials. […] Black polystyrene 96-well microtiter plates (Costar) were used for the GFP cell-based reporter assays.
Peptide stock solutions were serially diluted with DMSO in either 1:2, 1:3, or 1:5 dilutions, and 2 μl of the diluted solution was added to each of the wells in a black 96-well microtiter plate. Each concentration was tested in triplicate, with DMSO only used as a negative control. Screening of peptide analogs was conducted using the S. gallolyticus subsp. gallolyticus UCN34 Δgsp pTCVΩPgllA-gfp strain. An overnight culture was used to make a fresh 2-ml culture without EM using a 1:10 dilution on the day of the experiment and incubated in a CO2 incubator (37°C with 5% CO2) for 3 to 4 h to reach mid-log to late log phase of growth (OD600 = 0.6 to 0.9). A final 1:10 dilution was made on a larger scale (20 ml) without EM and used for the assay, where 198 μl diluted bacterial culture was added to each well of the microtiter plate containing peptides. Plates were incubated at 37°C with shaking at 200 rpm. Fluorescence (excitation, 485 nm; emission, 516 nm) and optical density at 600 nm (OD600) readings were recorded for each well using a plate reader. Measurements were taken 1 h after inoculation and were recorded every 20 to 30 min for up to 3 h to capture the maximum fluorescence signal. The maximum fluorescence signal was normalized with the OD600 value and used to construct dose curves to determine the EC50.

[2] = washed UCN34 Δgsp cells in sterile saline solution (0.9% [wt/vol] NaCl); conditions: S. gallolyticus subsp. gallolyticus UCN34 Δgsp, 37°C, up to 30 min
[3] = S. mutans ΔcomC washed cells in saline solution; conditions: S. mutans SMCC3 (ΔcomC), 37°C, up to 30 min
[4] = washed UCN34 ΔsepM cells in sterile saline solution (0.9% [wt/vol] NaCl); conditions: S. gallolyticus subsp. gallolyticus UCN34 ΔsepM, 37°C, up to 30 min

Sequence	EC50 [1] [nM]	other results
DFLIVGPFDALKKNHKPTKHA [GSP W10A]	> 1000	
DFLIVGPFDWLKKNHKPT [GSP-des-K19-A21]	> 1000	
DFLIVGPFDWLKKNHKPTAHA [GSP K19A]	106	
DFLIVGPFDWLKKNHKPTK [GSP-des-H20-A21]	> 1000	
DFLIVGPFDWLKKNHKPTKH [GSP-des-A21]	> 1000	
DFLIVGPFDWLKKNHKPTKHA		cleaved bond [2]: L3-I4, 30 min; cleaved bond [3]: L3-I4, 30 min
KNKDFLIVGPFDWLKKNHKPTKHA		cleaved bond [4]: L3-I4, 30 min; not cleaved [4]: Degradation of KNK-GSP to GSP was not observed (30 min); cleaved bond [2]: L3-I4, 30 min; not cleaved [2]: Degradation of KNK-GSP to GSP was not observed (30 min)
LKKNHKPTKHA [GSP-des-D1-W10]	> 1000	
